# Reference: patent US4820694A, “Modifications of 3-O-demethylmycinose in macrocin and lactenocin” (priority 1986, dated 1989)
# Like-named read-outs stand apart in the source and are kept apart here.
# Key:
# [1] = tested on: Staphylococcus aureus S13E; assay: microbe, parasite or virus in culture; format: cell-based; conditions: Staphylococcus aureus, S13E
# Description: (§1) The MIC's in Table III were determined by standard agar-dilution assays. The MIC's in Table IV were obtained using conventional brothdilution microtiter tests.
# [2] = tested on: Streptococcus pneumoniae Park I; assay: microbe, parasite or virus in culture; format: cell-based; conditions: Streptococcus pneumoniae
# Description: as §1
# Pasteurella multocida = Pasteurella multocida infection in one-day-old chicks; format: in vivo; conditions: subcutaneously, 30 mg/kg × 2, 1 and 4 hours post-challenge
# Description: Some of the formula 1 compounds have also shown in vivo antibacterial activity against infections induced by Gram-negative bacteria. Table VI summarizes the results of tests in which illustrative compounds were evaluated against a Pasteurella infection in one-day-old chicks. The compounds were administered by subcutaneous injection at a dosage of 30 mg/kg, 1 and 4 hours post-challenge of the chicks with Pasteurella multocida (0.1 ml of a 10^-4 dilution of a twenty-hour tryptose broth culture of an avian P. multocida given subcutaneously). In these tests, unless indicated otherwise, all non-medicated infected chicks died within 24 hours of Pasteurella challenge.
# ^a Administered subcutaneously; 30 mg/kg × 2
# [3] = tested on: Staphylococcus aureus 19C; assay: broth-dilution microtiter MIC test; format: cell-based; conditions: Staphylococcus aureus, 19C
# Description: as §1
# Mycoplasma hyorhinis 29E = assay: broth-dilution microtiter MIC test; format: cell-based; conditions: Mycoplasma, 29E
# Description: as §1
# [4] = tested on: Pasteurella hemolytica 41D; assay: broth-dilution microtiter MIC test; format: cell-based; conditions: Pasteurella, 41D
# Description: as §1
# [5] = tested on: Mycoplasma gallisepticum 29C; assay: broth-dilution microtiter MIC test; format: cell-based; conditions: Mycoplasmoides gallisepticum, 29C
# Description: as §1
# Streptococcus sp. 19F = assay: broth-dilution microtiter MIC test; format: cell-based; conditions: Streptococcus, SP.19F
# Description: as §1
# [6] = tested on: Pasteurella multocida 22A; assay: broth-dilution microtiter MIC test; format: cell-based; conditions: Pasteurella multocida, 22A
# Description: as §1
# [7] = tested on: Bordetella bronchiseptica; assay: broth-dilution microtiter MIC test; format: cell-based; conditions: Bordetella bronchiseptica
# Description: as §1
# [8] = tested on: Pasteurella multocida 40G; assay: broth-dilution microtiter MIC test; format: cell-based; conditions: Pasteurella multocida, 40G
# Description: as §1
# [9] = tested on: Pasteurella multocida 17E; assay: broth-dilution microtiter MIC test; format: cell-based; conditions: Pasteurella multocida, 17E
# Description: as §1
# [10] = tested on: Pasteurella hemolytica 23C; assay: broth-dilution microtiter MIC test; format: cell-based; conditions: Pasteurella, 23C
# Description: as §1
# [11] = tested on: Pasteurella hemolytica 22C; assay: broth-dilution microtiter MIC test; format: cell-based; conditions: Pasteurella, 22C
# Description: as §1
# [12] = tested on: Mycoplasma gallisepticum 15E; assay: broth-dilution microtiter MIC test; format: cell-based; conditions: Mycoplasmoides gallisepticum, 15E
# Description: as §1
# [13] = tested on: Pasteurella multocida 68C; assay: broth-dilution microtiter MIC test; format: cell-based; conditions: Pasteurella multocida, 68C
# Description: as §1
# [14] = tested on: Pasteurella multocida 60A; assay: broth-dilution microtiter MIC test; format: cell-based; conditions: Pasteurella multocida, 60A
# Description: as §1
# [15] = tested on: Mycoplasma gallisepticum 36H; assay: broth-dilution microtiter MIC test; format: cell-based; conditions: Mycoplasmoides gallisepticum, 36H
# Description: as §1
# [16] = tested on: Streptococcus Group D 9960; assay: standard agar-dilution MIC assay; format: cell-based; conditions: GROUPD9960, read-out: MIC
# Description: as §1
# [17] = tested on: Klebsiella pneumoniae X68; assay: standard agar-dilution MIC assay; format: cell-based; conditions: Klebsiella pneumoniae, X68
# Description: as §1
# [18] = tested on: Haemophilus influenzae 76; assay: standard agar-dilution MIC assay; format: cell-based; conditions: Haemophilus influenzae, 76
# Description: as §1
# [19] = tested on: Staphylococcus epidermidis EPI1; assay: standard agar-dilution MIC assay; format: cell-based; conditions: Staphylococcus epidermidis, EPI1
# Description: as §1
# [20] = tested on: Staphylococcus aureus X400; assay: standard agar-dilution MIC assay; format: cell-based; conditions: Staphylococcus aureus, X400
# Description: as §1
# [21] = tested on: Pseudomonas aeruginosa X239; assay: standard agar-dilution MIC assay; format: cell-based; conditions: Pseudomonas aeruginosa, X239
# Description: as §1
# [22] = tested on: Staphylococcus epidermidis EP12; assay: standard agar-dilution MIC assay; format: cell-based
# Description: as §1
# [23] = tested on: Staphylococcus aureus V41; assay: standard agar-dilution MIC assay; format: cell-based; conditions: Staphylococcus aureus, V41
# Description: as §1
# [24] = tested on: Streptococcus pyogenes C203; assay: standard agar-dilution MIC assay; format: cell-based; conditions: Streptococcus pyogenes, C203
# Description: as §1
# [25] = tested on: Staphylococcus aureus X1.1; assay: standard agar-dilution MIC assay; format: cell-based; conditions: Staphylococcus aureus, X1.1
# Description: as §1
# [26] = tested on: Haemophilus influenzae C.L.; assay: standard agar-dilution MIC assay; format: cell-based; conditions: Haemophilus influenzae
# Description: as §1
# [27] = tested on: Streptococcus Group D X66; assay: standard agar-dilution MIC assay; format: cell-based; conditions: read-out: MIC
# Description: as §1
# Escherichia coli EC14 = assay: standard agar-dilution MIC assay; format: cell-based
# Description: as §1
# [28] = tested on: Streptococcus pyogenes C203; assay: protection of mice experimentally infected with S. pyogenes C203; format: in vivo; conditions: C203, sc, Subcutaneous, mice, mg/kg × 2, doses given 1 and 4 hours postinfection, read-out: ED50
# Procedure, shortened: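 Mice experimentally infected with S. pyogenes C203 got two doses of test compound, at 1 and 4 h postinfection. The ED50 is the dose in mg/kg (per dose, given twice) that protected 50% of the animals.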
# Mycoplasma synoviae 40A = assay: broth-dilution microtiter MIC test; format: cell-based; conditions: Mycoplasmopsis synoviae, 40A
# Description: as §1
SMILES,MIC [1] [µg/mL],MIC [2] [µg/mL],Number of Deaths/Number Treated (Pasteurella multocida),MIC [3] [µg/mL],MIC (Mycoplasma hyorhinis 29E) [µg/mL],MIC [4] [µg/mL],MIC [5] [µg/mL],MIC (Streptococcus sp. 19F) [µg/mL],MIC [6] [µg/mL],MIC [8] [µg/mL],MIC [9] [µg/mL],MIC [10] [µg/mL],MIC [11] [µg/mL],MIC [12] [µg/mL],MIC [13] [µg/mL],MIC [14] [µg/mL],MIC [15] [µg/mL],MIC [16] [µg/mL],MIC [19] [µg/mL],MIC [20] [µg/mL],also measured
"CCC1OC(=O)CC(O)C(C)C(OC2OC(C)C(OC3CC(C)(O)C(O)C(C)O3)C(N(C)C)C2OC(C)=O)C(CC=O)CC(C)C(=O)C=CC(C)=CC1COC1OC(C)C(OC(=O)Cc2ccccc2)C(O)C1OC (centres unmarked) [Compound 9, 2'-O-Acetyl-4'""-O-phenylacetyl-macrocin]",2,0.25,10/10,3.12,1.56,> 50,0.78,1.56,> 50,> 50,> 50,> 50,> 50,12.5,> 50,> 50,12.5,0.5,2,2,MIC [7]: > 50 µg/mL; MIC [17]: > 128 µg/mL; MIC [18]: 32 µg/mL; MIC [21]: > 128 µg/mL; MIC [22]: 2 µg/mL; MIC [23]: 1 µg/mL; MIC [24]: 0.5 µg/mL; MIC [25]: 1 µg/mL; MIC [26]: 32 µg/mL; MIC [27]: 1 µg/mL; MIC (Escherichia coli EC14): > 128 µg/mL
"CCC1OC(=O)CC(O)C(C)C(OC2OC(C)C(O)C(N(C)C)C2OC(C)=O)C(CC=O)CC(C)C(=O)C=CC(C)=CC1COC1OC(C)C(OC(C)=O)C(O)C1OC (centres unmarked) [Compound 21, 2',4""-Di-O-acetyl-lactenocin]",4,1,3/10,3.12,6.25,50,3.12,1.56,12.5,12.5,12.5,50,50,50,12.5,12.5,50,4,2,8,"ED50 [28]: 5.5 mg/kg; MIC ([7]; broth-dilution microtiter, read-out: MIC): > 50 µg/mL; MIC (Mycoplasma synoviae 40A): 3.12 µg/mL; MIC ([17]; agar-dilution, read-out: MIC): > 128 µg/mL; MIC ([21]; agar-dilution, read-out: MIC): > 128 µg/mL; MIC [22]: 4 µg/mL; MIC [23]: 4 µg/mL; MIC [24]: 1 µg/mL; MIC [25]: 2 µg/mL; MIC [27]: 4 µg/mL; MIC (Escherichia coli EC14; agar-dilution, read-out: MIC): > 128 µg/mL"
